According to patent US20040224958A1, “Pyridopyrimidinone derivatives for treatment of neurodegenerative disease” (priority 2000, published 2004):
pIC50: −log10 of the molar value.

What was measured:
Cdk5/p25 = Cdk5/p25 (Homo sapiens, UniProt Q00535); test: Cyclin-Dependent Kinase 5 High Throughput Screening (cdk5-HTS) Assay; type: biochemical; details: high throughput screen
Method in brief: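 IC50 determined from 33P incorporation into GST-RbCOOH captured on glutathione plates and read by scintillation counting. Reaction: 1.0 μg/mL Cdk5/p25, 20 μM [γ33P]ATP, pH 7.4 Tris buffer with MgCl2 and DTT, 30 min at room temperature, stopped with EDTA.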

cdk2/cyclinE = cdk2/cyclinE (Homo sapiens, UniProt P24941); test: Cyclin-Dependent Kinase Assay cdk2/cyclinE; details: cdk2/E IC50
cdk2/cyclinA = cdk2/cyclinA (Homo sapiens, UniProt P24941); test: Cyclin-Dependent Kinase Assay cdk2/cyclinA; details: cdk2/A IC50
cdc2/cyclinB = cdc2/cyclinB (Homo sapiens, UniProt P06493); test: Cyclin-Dependent Kinase Assay cdc2/cyclinB
Chain of cdc2/cyclinB (P06493 whole entry): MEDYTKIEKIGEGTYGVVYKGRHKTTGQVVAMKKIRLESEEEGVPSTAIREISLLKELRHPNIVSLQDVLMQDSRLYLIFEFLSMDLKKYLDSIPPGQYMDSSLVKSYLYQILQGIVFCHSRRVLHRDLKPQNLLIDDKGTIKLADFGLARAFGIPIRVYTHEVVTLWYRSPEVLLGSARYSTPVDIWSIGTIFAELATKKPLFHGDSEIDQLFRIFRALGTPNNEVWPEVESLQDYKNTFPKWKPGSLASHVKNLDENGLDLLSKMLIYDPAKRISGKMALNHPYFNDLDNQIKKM
Chain of cdc2/cyclinB (P14635 whole entry, further chain): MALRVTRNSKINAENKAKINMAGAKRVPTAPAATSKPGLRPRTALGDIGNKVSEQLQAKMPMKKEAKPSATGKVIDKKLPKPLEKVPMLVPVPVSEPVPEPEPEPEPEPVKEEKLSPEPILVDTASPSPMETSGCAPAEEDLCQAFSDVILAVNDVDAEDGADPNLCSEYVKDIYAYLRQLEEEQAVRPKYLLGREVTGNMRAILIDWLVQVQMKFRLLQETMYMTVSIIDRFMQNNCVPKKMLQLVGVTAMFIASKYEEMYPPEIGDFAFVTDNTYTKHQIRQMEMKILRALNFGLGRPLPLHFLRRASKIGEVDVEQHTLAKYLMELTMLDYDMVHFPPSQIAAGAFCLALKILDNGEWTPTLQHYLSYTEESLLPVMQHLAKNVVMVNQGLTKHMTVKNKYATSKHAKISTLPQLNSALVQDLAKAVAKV

cdk4/D = cdk4/D (Homo sapiens, UniProt P11802); test: Cyclin-Dependent Kinase 4 (cdk4) Assay; type: biochemical; details: read-out: cdk4/D IC50
Chain of cdk4/D (P11802 whole entry): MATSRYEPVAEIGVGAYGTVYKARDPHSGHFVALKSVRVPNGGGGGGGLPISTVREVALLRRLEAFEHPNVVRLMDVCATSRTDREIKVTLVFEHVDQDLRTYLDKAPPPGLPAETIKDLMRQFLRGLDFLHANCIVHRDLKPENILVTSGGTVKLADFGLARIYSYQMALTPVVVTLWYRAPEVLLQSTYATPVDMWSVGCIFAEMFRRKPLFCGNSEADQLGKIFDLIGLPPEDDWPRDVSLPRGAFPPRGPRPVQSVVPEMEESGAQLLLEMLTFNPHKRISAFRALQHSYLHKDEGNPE
Chain of cdk4/D (P24385 whole entry, further chain): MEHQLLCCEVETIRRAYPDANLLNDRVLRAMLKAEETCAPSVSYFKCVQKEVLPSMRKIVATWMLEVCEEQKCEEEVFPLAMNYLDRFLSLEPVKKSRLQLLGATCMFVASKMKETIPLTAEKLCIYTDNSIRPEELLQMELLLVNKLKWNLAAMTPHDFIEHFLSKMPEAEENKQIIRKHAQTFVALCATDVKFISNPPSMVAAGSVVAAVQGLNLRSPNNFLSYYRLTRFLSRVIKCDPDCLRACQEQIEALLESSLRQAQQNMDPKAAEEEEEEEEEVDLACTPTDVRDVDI

Row | pIC50 (Cdk5/p25) | pIC50 (cdk2/cyclinE) | pIC50 (cdk2/cyclinA) | pIC50 (cdc2/cyclinB) | pIC50 (cdk4/D) | SMILES
1 | 7.64 | 7.09 | 6.46 | 7.07 | 6.92 | Cc1cc(C)cc(Nc2ncc3ccc(=O)n(C4CCCC4)c3n2)c1 [Example 544, 8-Cyclopentyl-2-(3,5-dimethyl-phenylamino)-8H-pyrido[2,3-d]pyrimidin-7-one]
2 | 7.60 | 6.85 | 6.51 | 6.74 | 7.26 | Cc1ccc(Nc2ncc3ccc(=O)n(C4CCCC4)c3n2)cc1Cl [Example 545, 2-(3-Chloro-4-methyl-phenylamino)-8-cyclopentyl-8H-pyrido[2,3-d]pyrimidin-7-one]
3 | 7.19 | 6.38 | 5.87 | 6.26 | 5.86 | O=c1ccc2cnc(Nc3ccc(Cl)c(C(F)(F)F)c3)nc2n1C1CCCC1 [Example 546, 2-(4-Chloro-3-trifluoromethyl-phenylamino)-8-cyclopentyl-8H-pyrido[2,3-d]pyrimidin-7-one]
4 | 7.18 | 6.96 | 6.23 | 6.52 | 7.27 | NS(=O)(=O)c1cccc(Nc2ncc3ccc(=O)n(C4CCCC4)c3n2)c1 [Example 547, 3-(8-Cyclopentyl-7-oxo-7,8-dihydro-pyrido[2,3-d]pyrimidin-2-ylamino)-benzenesulfonamide]
5 | 7.00 | 6.74 | 6.70 | 6.54 | 6.74 | O=c1ccc2cnc(Nc3cc(F)cc(F)c3)nc2n1C1CCCC1 [Example 548, 8-Cyclopentyl-2-(3,5-difluoro-phenylamino)-8H-pyrido[2,3-d]pyrimidin-7-one]
6 | 7.23 | 6.54 | 6.72 | 6.70 | 7.15 | Cc1ccc(Nc2ncc3ccc(=O)n(C4CCCC4)c3n2)cc1C [Example 549, 8-Cyclopentyl-2-(3,4-dimethyl-phenylamino)-8H-pyrido[2,3-d]pyrimidin-7-one]
7 | 6.72 | 6.96 | 6.70 | 6.29 | 6.51 | O=c1ccc2cnc(Nc3ccc(O)c(CN4CCOCC4)c3)nc2n1C1CCCC1 [Example 550, 8-Cyclopentyl-2-(4-hydroxy-3-morpholin-4-ylmethyl-phenylamino)-8H-pyrido[2,3-d]pyrimidin-7-one]
8 | 7.26 | 7.80 | 7.85 | 7.44 | 6.54 | O=c1ccc2cnc(Nc3ccc(O)c([N+](=O)[O-])c3)nc2n1C1CCCC1 [Example 551, 8-Cyclopentyl-2-(4-hydroxy-3-nitro-phenylamino)-8H-pyrido[2,3-d]pyrimidin-7-one]
9 | 7.27 | 6.82 | 6.68 | 7.32 | 6.74 | CC1Nc2ccc(Nc3ncc4ccc(=O)n(C5CCCC5)c4n3)cc2C1C (stereo not drawn) [Example 552, 8-Cyclopentyl-2-(2,3-dimethyl-2,3-dihydro-1H-indol-5-ylamino)-8H-pyrido[2,3-d]pyrimidin-7-one]
10 | 7.49 | 6.82 | 6.83 | 6.77 | 6.64 | O=c1[nH]c2cc(Nc3ncc4ccc(=O)n(C5CCCC5)c4n3)ccc2o1 [Example 554, 8-Cyclopentyl-2-(2-oxo-2,3-dihydro-benzoxazol-5-ylamino)-8H-pyrido[2,3-d]pyrimidin-7-one]
11 | 7.22 | 7.00 | 6.80 | 6.66 | 7.16 | Cc1ccc(Nc2ncc3ccc(=O)n(C4CCCC4)c3n2)cc1NS(C)(=O)=O [Example 555, N-[5-(8-Cyclopentyl-7-oxo-7,8-dihydro-pyrido[2,3-d]pyrimidin-2-ylamino)-2-methyl-phenyl]-methanesulfonamide]
12 | 8.05 | 7.40 | 7.80 | 7.52 | 7.72 | O=C1CSc2ccc(Nc3ncc4ccc(=O)n(C5CCCC5)c4n3)cc2N1 [Example 556, 8-Cyclopentyl-2-(3-oxo-3,4-dihydro-2H-1,4-benzothiazin-6-ylamino)-8H-pyrido[2,3-d]pyrimidin-7-one]
13 | 6.66 | 6.55 | 6.47 | 6.29 | 7.52 | CC(=O)Nc1cc(Nc2ncc3ccc(=O)n(C4CCCC4)c3n2)ccc1C [Example 558, N-[5-(8-Cyclopentyl-7-oxo-7,8-dihydro-pyrido[2,3-d]pyrimidin-2-ylamino)-2-methyl-phenyl]-acetamide]
14 | 7.03 | 7.04 | 7.06 | 7.09 | 6.57 | Cc1cc(Nc2ncc3ccc(=O)n(C4CCCC4)c3n2)cc(C)c1O [Example 559, 8-Cyclopentyl-2-(4-hydroxy-3,5-dimethyl-phenylamino)-8H-pyrido[2,3-d]pyrimidin-7-one]
15 | 6.31 | 6.43 | 6.66 | 6.35 | 6.04 | O=C(O)c1cc(Nc2ncc3ccc(=O)n(C4CCCC4)c3n2)ccc1O [Example 560, 5-(8-Cyclopentyl-7-oxo-7,8-dihydro-pyrido[2,3-d]pyrimidin-2-ylamino)-2-hydroxy-benzoic acid]
16 | 7.30 | 6.85 | 7.25 | 7.33 | 6.80 | Cc1cc(Nc2ncc3ccc(=O)n(C4CCCC4)c3n2)ccc1Br [Example 562, 2-(4-Bromo-3-methyl-phenylamino)-8-cyclopentyl-8H-pyrido[2,3-d]pyrimidin-7-one]
17 | 7.06 | 6.99 | 6.49 | 6.81 | 7.06 | O=c1ccc2cnc(Nc3ccc4[nH]ccc4c3)nc2n1CC1CC1 [Example 563, 8-Cyclopropylmethyl-2-(1H-indol-5-ylamino)-8H-pyrido[2,3-d]pyrimidin-7-one]
18 | 7.28 | 7.30 | 6.93 | 7.02 | 6.30 | O=c1ccc2cnc(Nc3ccc4[nH]nnc4c3)nc2n1CC1CC1 [Example 564, 2-(1H-Benzotriazol-5-ylamino)-8-cyclopropylmethyl-8H-pyrido[2,3-d]pyrimidin-7-one]
19 | 6.54 | 6.71 | 6.29 | 6.44 | 6.41 | CC(C)(C)OC(=O)Nc1ccc(Nc2ncc3ccc(=O)n(CC4CC4)c3n2)cc1 [Example 565, [4-(8-Cyclopropylmethyl-7-oxo-7,8-dihydro-pyrido[2,3-d]pyrimidin-2-ylamino)-phenyl]-carbamic acid tert-butyl ester]
20 | 6.59 | 6.73 | 6.21 | 6.35 | 6.07 | O=c1ccc2cnc(Nc3ccc(O)cc3F)nc2n1CC1CC1 [Example 566, 8-Cyclopropylmethyl-2-(2-fluoro-4-hydroxy-phenylamino)-8H-pyrido[2,3-d]pyrimidin-7-one]
21 | 7.50 | 7.79 | 7.26 | 7.12 | 6.84 | O=c1ccc2cnc(Nc3ccc(O)c(Cl)c3)nc2n1CC1CC1 [Example 567, 2-(3-Chloro-4-hydroxy-phenylamino)-8-cyclopropylmethyl-8H-pyrido[2,3-d]pyrimidin-7-one]
22 | 6.99 | 7.37 | 6.99 | 7.00 | 6.04 | O=c1ccc2cnc(Nc3cc(Cl)c(O)c(Cl)c3)nc2n1CC1CC1 [Example 568, 8-Cyclopropylmethyl-2-(3,5-dichloro-4-hydroxy-phenylamino)-8H-pyrido[2,3-d]pyrimidin-7-one]
23 | 6.51 | 6.59 | 5.80 | 6.25 | 5.46 | COc1cc(Nc2ncc3ccc(=O)n(CC4CC4)c3n2)cc(OC)c1OC [Example 569, 8-Cyclopropylmethyl-2-(3,4,5-trimethoxy-phenylamino)-8H-pyrido[2,3-d]pyrimidin-7-one]
24 | 7.30 | 7.20 | 6.37 | 6.77 | 6.17 | O=c1ccc2cnc(Nc3ccc(F)c(C(F)(F)F)c3)nc2n1CC1CC1 [Example 570, 8-Cyclopropylmethyl-2-(4-fluoro-3-trifluoromethyl-phenylamino)-8H-pyrido[2,3-d]pyrimidin-7-one]
25 | 8.06 | 8.29 | 7.82 | 7.54 | 7.19 | NS(=O)(=O)c1ccc(Nc2ncc3ccc(=O)n(CC4CC4)c3n2)cc1 [Example 571, 4-(8-Cyclopropylmethyl-7-oxo-7,8-dihydro-pyrido[2,3-d]pyrimidin-2-ylamino)-benzenesulfonamide]
26 | 6.72 | 7.08 | 6.28 | 6.37 | 6.92 | O=c1ccc2cnc(Nc3cc([N+](=O)[O-])ccc3F)nc2n1CC1CC1 [Example 572, 8-Cyclopropylmethyl-2-(2-fluoro-5-nitro-phenylamino)-8H-pyrido[2,3-d]pyrimidin-7-one]
27 | 6.85 | 6.57 | 6.28 | 6.54 | 7.10 | CC(=O)Nc1cc(Nc2ncc3ccc(=O)n(CC4CC4)c3n2)ccc1C#N [Example 574, N-[2-Cyano-5-(8-cyclopropylmethyl-7-oxo-7,8-dihydro-pyrido[2,3-d]pyrimidin-2-ylamino)-phenyl]-acetamide]
